Assay results published in publication PMC6134108, “Nystatin-like Pseudonocardia polyene B1, a novel disaccharide-containing antifungal heptaene antibiotic” (Scientific Reports, 2018).
Where two headings read alike, the source gives them in different places.

Assays:
[1] = system: ICR mice; assay: 7-day repeated intravenous dose toxicity; format: in vivo
Protocol: All in vivo mouse toxicity studies were conducted according to Testing Guidelines for Safety Evaluation of Drugs[32] and the Organisation for Economic Co-operation and Development (OECD) Guideline[33]. Male and female ICR mice were used 7 weeks old for the toxicity test. […]

[2] = in vivo; conditions: mouse
Excerpt: Supplement 41598_2018_31801_MOESM1_ESM.docx, table 4: Table S4.

[3] = system: cholesterol-containing membranes; assay: Preliminary SPR experiments; format: binding; conditions: unpublished data
[4] = system: C. albicans; assay: In vitro antifungal activity against four different C. albicans strains (comparison); format: cell-based, Candida albicans
Protocol: (§1) For the minimum inhibitory concentration (MIC) assay, strains for testing were grown on YPD agar for 24 hours, and subcultured to YPD broth medium. Whole strains were incubated for 18 hours at 35 °C by shaking incubator. Grown organisms were diluted with fresh RPMI 1640 medium to appropriate concentration, 5 × 10^4 CFU/ml. Cultures were inoculated to 96-well plates containing antifungal medium. All compounds were dissolved using Dimethyl Sulfoxide (DMSO) and diluted broth media. Fungal diluted solution and antifungal medium were mixed at 1:1 ratio so total 200 ul mixed medium was made. Whole experiment plates were incubated for 24 hours at 37 °C. […] The MICs were calculated in duplicate using the Clinical and Laboratory Standards Institute M27-A3 microbroth methodology. Hemolysis experiments and the 3-(4,5-dimethylthiazol-2-yl)-5-(3-carboxymethoxyphenyl)-2-(4-sulfophenyl)-2H-tetrazolium (MTS) cell proliferation colorimetric assay were performed following known procedures[12],[27],[29].

[5] = system: HepG2 cells; assay: In vitro hepatotoxicity (MTS cell proliferation assay); format: cell-based, human
Protocol: as §1

[6] = system: Hep3B cells; assay: as above; format: cell-based, human
Protocol: as §1

[7] = female, repeated iv 1.5mg/kg, day 0
[8] = female, repeated iv 1.5mg/kg, day 1
[9] = female, repeated iv 1.5mg/kg, day 2
[10] = female, repeated iv 1.5mg/kg, day 3
[11] = female, repeated iv 1.5mg/kg, day 4
[12] = female, repeated iv 1.5mg/kg, day 5
[13] = female, repeated iv 1.5mg/kg, day 6
[14] = female, repeated iv 1.5mg/kg, day 7
[15] = male, repeated iv 1.5mg/kg, day 0
[16] = male, repeated iv 1.5mg/kg, day 1
[17] = male, repeated iv 1.5mg/kg, day 2
[18] = male, repeated iv 1.5mg/kg, day 3
[19] = male, repeated iv 1.5mg/kg, day 4
[20] = male, repeated iv 1.5mg/kg, day 5
[21] = male, repeated iv 1.5mg/kg, day 6

C[C@@H]1[C@H](O)[C@@H](C)/C=C/C=C/C=C/C=C/C=C/C=C/C=C/[C@H](O[C@@H]2O[C@H](C)[C@@H](O)[C@H](N)[C@@H]2O)C[C@@H]2O[C@](O)(C[C@@H](O)C[C@@H](O)[C@H](O)CC[C@@H](O)C[C@@H](O)CC(=O)O[C@H]1C)C[C@H](O)[C@H]2C(=O)O [Amphotericin B, amphotericin B]
Deaths on day after start of treatment ([1]; female, repeated iv 0.5mg/kg, day 0): 0 | Deaths on day after start of treatment ([1]; female, repeated iv 0.5mg/kg, day 1): 0 | Deaths on day after start of treatment ([1]; female, repeated iv 0.5mg/kg, day 2): 0 | Deaths on day after start of treatment ([1]; female, repeated iv 0.5mg/kg, day 3): 0 | Deaths on day after start of treatment ([1]; female, repeated iv 0.5mg/kg, day 4): 0 | Deaths on day after start of treatment ([1]; female, repeated iv 0.5mg/kg, day 5): 0 | Deaths on day after start of treatment ([1]; female, repeated iv 0.5mg/kg, day 6): 0 | Deaths on day after start of treatment ([1]; female, repeated iv 0.5mg/kg, day 7): 0 | Deaths on day after start of treatment [1, 7]: 0 | Deaths on day after start of treatment [1, 8]: 0 | Deaths on day after start of treatment [1, 9]: 0 | Deaths on day after start of treatment [1, 10]: 0 | Deaths on day after start of treatment [1, 11]: 0 | Deaths on day after start of treatment [1, 12]: 0 | Deaths on day after start of treatment [1, 13]: 0 | Deaths on day after start of treatment [1, 14]: 0 | Deaths on day after start of treatment ([1]; male, repeated iv 0.5mg/kg, day 0): 0 | Deaths on day after start of treatment ([1]; male, repeated iv 0.5mg/kg, day 1): 0 | Deaths on day after start of treatment ([1]; male, repeated iv 0.5mg/kg, day 2): 0 | Deaths on day after start of treatment ([1]; male, repeated iv 0.5mg/kg, day 3): 0 | Deaths on day after start of treatment ([1]; male, repeated iv 0.5mg/kg, day 4): 0 | Deaths on day after start of treatment ([1]; male, repeated iv 0.5mg/kg, day 5): 0 | Deaths on day after start of treatment ([1]; male, repeated iv 0.5mg/kg, day 6): 0 | Deaths on day after start of treatment [1, 15]: 0 | Deaths on day after start of treatment [1, 16]: 0 | Deaths on day after start of treatment [1, 17]: 0 | Deaths on day after start of treatment [1, 18]: 0 | Deaths on day after start of treatment [1, 19]: 0 | Deaths on day after start of treatment [1, 20]: 0 | Deaths on day after start of treatment [1, 21]: 1 | AUC(0-inf) ([2]; 1 mg/kg): 29300 ng·h/mL | AUC(0-t) ([2]; 1 mg/kg): 22200 ng·h/mL | MRT inf ([2]; 1 mg/kg): 5.5 h | Vd ([2]; 1 mg/kg): 0.2 L/kg | clearance ([2]; 1 mg/kg): 0.5 mL/min/kg | half-life ([2]; 1 mg/kg): 3.4 h | affinity compared with NPP B1 [3]: higher affinity

CC(=O)NC1C(OC2C(C)OC(OC3C=CC=CC=CC=CC=CC=CC=CC(C)C(O)C(C)C(C)OC(=O)CC(O)CC(O)CC(O)CCC(O)C(O)CC4(O)CC(O)C(C(=O)O)C(C3)O4)C(O)C2N)OC(CO)C(O)C1O (stereo not shown) [NPP B1, Nystatin-like Pseudonocardia polyene B1]
antifungal activity, fold lower than amphotericin B [4]: 2 fold | in vitro hepatotoxicity compared with AmB [5]: not improved | in vitro hepatotoxicity compared with AmB [6]: not improved | Deaths on day after start of treatment [1, 7]: 0 | Deaths on day after start of treatment [1, 8]: 0 | Deaths on day after start of treatment [1, 9]: 0 | Deaths on day after start of treatment [1, 10]: 0 | Deaths on day after start of treatment [1, 11]: 0 | Deaths on day after start of treatment [1, 12]: 0 | Deaths on day after start of treatment [1, 13]: 0 | Deaths on day after start of treatment [1, 14]: 0 | Deaths on day after start of treatment [1, 15]: 0 | Deaths on day after start of treatment [1, 16]: 0 | Deaths on day after start of treatment [1, 17]: 0 | Deaths on day after start of treatment [1, 18]: 0 | Deaths on day after start of treatment [1, 19]: 0 | Deaths on day after start of treatment [1, 20]: 0 | Deaths on day after start of treatment [1, 21]: 0 | AUC(0-inf) ([2]; 0.5 mg/kg, read-out: AUC0-inf): 15100 ng·h/mL | AUC(0-t) ([2]; 0.5 mg/kg, read-out: AUC0-t): 5890 ng·h/mL | clearance ([2]; 0.5 mg/kg, read-out: CL (converted)): 0.5 mL/min/kg | MRT inf ([2]; 0.5 mg/kg, read-out: MRTinf): 17 h | Vd ([2]; 0.5 mg/kg, read-out: Vss): 0.6 L/kg | half-life ([2]; 0.5 mg/kg, read-out: t1/2 (converted)): 12.3 h
